According to patent US20090169474A1, “METHOD FOR NONINVASNELY AND QUANTITATIVELY MONITORING THERAPEUTIC AND DIAGNOSTIC TRANSGENE EXPRESSION INDUCED BY EX VNO AND IN VNO GENE TARGETING IN ORGANS, TISSUES AND CELLS” (The Regentsf of the University of California, priority 2006, published 2009):

Legend:
[1] = tested on: wild-type HSV1-tk and HSV1-sr39tk PET reporter genes; assay: In vivo imaging of PET reporter genes with reporter probes
Description: Two main categories of substrates, uracil nucleoside derivatives labelled with radioactive iodine (e.g., I-labelled 2′fluoro-2′-deoxy-1-β-D-arabinofura-nosyl-5-iodo-uracilc(FIAU)), and acycloguanosine derivatives labelled with radioactive ^18F-fluorine (e.g., 9-[(4-[^18F]-fluoro-3-hydroxymethylbutyl)guanine (FHBG) and 8-[^18F]fluropenciclorivr (FPCV)), have been investigated as reporter probes for imaging HSV1-tk reporter gene expression.

[2] = tested on: HSV1-sr39tk reporter gene expression in cardiac allografts; assay: Micro-PET imaging of [18F]FHBG / [18F]FDG accumulation; assay type: in vivo; settings: recipient rabbit with gene transfected donor heart in the neck
Protocol: Micro-PET scan was performed on postoperative days 2, 4, 6, 8, 12, 20, and 28 in the IL-10 gene therapy group and days 2, 4, 6, and 8 in the control group. Recipient rabbits were intravenously injected with 1 mCi of [^18F]FHBG PET reporter probe. After a 1-h rest to allow for tracer uptake and clearance, the rabbits were imaged with a micro-PET-P4 (Primate P4; Concorde Microsystems, Inc., Knoxville, Tenn., USA) for 45 min over the neck and chest. Micro-PET image data were reconstructed by filtered back-projection and were reoriented into short, vertical, and horizontal long axis slices. From regions of interest on the anterolateral wall (short axis cut), derived counts/pixel/min were converted to counts/ml/min using a calibration constant obtained from scanning a cylindrical phantom. The regions-of-interest (ROI) counts/ml/min were converted to counts/g/min (assuming a tissue density of 1 g/ml) and divided by the injected dose to obtain an image ROI-derived [^18F]FHBG percentage injected dose per gram of heart (% ID/g). The total myocardial accumulation of [^18F]FHBG was corrected for background activity in each region of interest, summed for the 12 slices, and expressed as % ID=(total activity in 12 regions of interest (ROI), left ventricle (LV) (MBq)-total activity in 12 ROI BG (MBq))/injected dose (MBq)×100. […]

Compound | effectiveness as probe for in vivo imaging, compared with FPCV [1] | localization of probe activity on micro-PET [2]
Nc1nc2c(ncn2CCC(CO)C[18F])c(=O)[nH]1 (stereo not drawn) [[^18F]FHBG, 9-(4-[^18F]fluoro-3-hydroxymethylbutyl)guanine] | more effective probe | only in targeted donor heart in the neck
2-[^18F]fluoro-2-deoxy-d-glucose [[^18F]FDG] | – | in the donor heart as well as in the recipient's heart and skeletal muscle of limb and neck
